In PubChem BioAssay AID330 (DTP/NCI, 2004):
Where “and” joins values, the source holds several entries; their conditions need not be identical. Identical values can stand only once. Toxic doses and inconclusive results are not listed. How the source made its calls: active means survival T/C of 150% or more; inactive means T/C below 125% in these data. Numbered stars: 1 amine (or outer) side, 2 acyl side, 3 side chain; on linkers, the order of the positions; unused ones are H or OH. Peptide text beside a SMILES is read from it. CO = O=C([*:1])[*:2]

System: P388 leukemia ip, CD2F1 mice, survival T/C
Experiment: NCI In Vivo Anticancer Drug Screen. Data for tumor model P388 Leukemia (intraperitoneal) in CD2F1 (CDF1) mice
Conditions: endpoint: median survival time, higher = longer survival
Method in brief: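 Mice carrying the transplanted tumor received test compound or vehicle. Survival was recorded in each group, and the value is the treated-group measurement divided by that of the vehicle-treated control group.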

[1] = dose: 50.0 mg/kg/injection, schedule: Q01DX009 (ip), vehicle: saline
[2] = dose: 25.0 mg/kg/injection, schedule: Q01DX009 (ip), vehicle: Klucel (hydroxypropylcellulose) (HPC)
[3] = dose: 50.0 mg/kg/injection, schedule: Q01DX009 (ip), vehicle: Klucel (hydroxypropylcellulose) (HPC)
[4] = dose: 100.0 mg/kg/injection, schedule: Q01DX009 (ip), vehicle: Klucel (hydroxypropylcellulose) (HPC)
[5] = dose: 200.0 mg/kg/injection, schedule: Q01DX009 (ip), vehicle: Klucel (hydroxypropylcellulose) (HPC)
[6] = dose: 60.0 mg/kg/injection, schedule: Q01DX005 (ip), vehicle: saline with Tween-80
[7] = dose: 120.0 mg/kg/injection, schedule: Q01DX005 (ip), vehicle: saline with Tween-80
[8] = dose: 240.0 mg/kg/injection, schedule: Q01DX005 (ip), vehicle: saline with Tween-80
[9] = dose: 50.0 mg/kg/injection, schedule: Q01DX005 (ip), vehicle: saline with Tween-80
[10] = dose: 100.0 mg/kg/injection, schedule: Q01DX005 (ip), vehicle: saline with Tween-80
[11] = dose: 200.0 mg/kg/injection, schedule: Q01DX005 (ip), vehicle: saline with Tween-80
[12] = dose: 50.0 mg/kg/injection, schedule: Q01DX009 (ip), vehicle: saline with Tween-80
[13] = dose: 100.0 mg/kg/injection, schedule: Q01DX009 (ip), vehicle: saline with Tween-80
[14] = dose: 50.0 mg/kg/injection, schedule: Q01DX005 (ip), vehicle: Klucel (hydroxypropylcellulose) (HPC)
[15] = dose: 100.0 mg/kg/injection, schedule: Q01DX005 (ip), vehicle: Klucel (hydroxypropylcellulose) (HPC)
[16] = dose: 200.0 mg/kg/injection, schedule: Q01DX005 (ip), vehicle: Klucel (hydroxypropylcellulose) (HPC)

Measured: T/C

[CH3][Ge]([CH3])([Cl])[c]1cc[c]([Ge]([CH3])([CH3])[Cl])cc1
inactive: dose: 3.12 mg/kg/injection, schedule: Q01DX009 (ip), vehicle: saline 96 % of control | dose: 6.25 mg/kg/injection, schedule: Q01DX009 (ip), vehicle: saline 94 % of control | dose: 12.5 mg/kg/injection, schedule: Q01DX009 (ip), vehicle: saline 113 % of control and 92 % of control | [1] 110 % of control | dose: 50.0 mg/kg/injection, schedule: Q04DX003 (ip), vehicle: saline 118 % of control | dose: 100.0 mg/kg/injection, schedule: Q04DX003 (ip), vehicle: saline 89 % of control

c1ccc(N/N=C2/c3ccccc3CC23OC3c2ccccc2)cc1 (configuration not stated)
inactive: [2] 90 % of control | [3] 90 % of control | [4] 88 % of control | [5] 87 % of control | dose: 400.0 mg/kg/injection, schedule: Q01DX009 (ip), vehicle: Klucel (hydroxypropylcellulose) (HPC) 88 % of control

Cc1cc(=O)n2c(n1)sc1ccc3ccccc3c12
inactive: [6] 100 % of control | [7] 100 % of control | [8] 97 % of control

COC(=O)C1=C(C)NC(C)=C(C(=O)OC)C1c1ccc(Cl)c([N+](=O)[O-])c1
inactive: [9] 99 % of control | [10] 96 % of control | [11] 92 % of control

CC1C2COCC2CC2OC21 (configuration not stated)
inactive: dose: 6.25 mg/kg/injection, schedule: Q01DX001 (ip), vehicle: saline with Tween-80 109 % of control | dose: 12.5 mg/kg/injection, schedule: Q01DX001 (ip), vehicle: saline with Tween-80 100 % of control | dose: 25.0 mg/kg/injection, schedule: Q01DX001 (ip), vehicle: saline with Tween-80 104 % of control

CC[n+]1c(-c2ccccc2)c2cc(N)ccc2c2ccc(N)cc21 (tested in a mixture with another compound)
inactive: dose: 5.0 mg/kg/injection, schedule: Q01DX005 (ip), vehicle: other 102 % of control | dose: 10.0 mg/kg/injection, schedule: Q01DX005 (ip), vehicle: other 112 % of control | dose: 20.0 mg/kg/injection, schedule: Q01DX005 (ip), vehicle: other 102 % of control | dose: 40.0 mg/kg/injection, schedule: Q01DX005 (ip), vehicle: other 109 % of control | dose: 80.0 mg/kg/injection, schedule: Q01DX005 (ip), vehicle: other 119 % of control

CC(=O)Oc1ccccc1C(=O)O
inactive: dose: 31.3 mg/kg/injection, schedule: Q01DX009 (ip), vehicle: saline with Tween-80 90 % of control | [12] 99 % of control | dose: 62.5 mg/kg/injection, schedule: Q01DX009 (ip), vehicle: saline with Tween-80 100 % of control | [13] 107 % of control | dose: 125.0 mg/kg/injection, schedule: Q01DX009 (ip), vehicle: saline with Tween-80 104 % of control | dose: 200.0 mg/kg/injection, schedule: Q01DX009 (ip), vehicle: saline with Tween-80 95 % of control

Cc1c(-c2ccncc2)nc2ccccc2c1C(=O)O
inactive: [9] 100 % of control | [10] 100 % of control | [11] 97 % of control

Cc1cccc(N=Cc2ccc(C=Nc3cccc(C)c3C)cc2)c1C
inactive: [3] 92 % of control | [4] 91 % of control | [5] 86 % of control

CNc1nc(N)nc(N)c1N1CCN(c2ccc(C(=O)NC(CCCC(=O)O)C(=O)O)cc2)CC1 (configuration not stated)
inactive: [6] 99 % of control | [7] 100 % of control | [8] 95 % of control

CCCCCCCCC#CCO
inactive: [6] 86 % of control | [7] 86 % of control

COc1cccc2c1C(=O)c1c(O)c3c(c(O)c1C2=O)CC(O)(C(=O)COc1ccccc1)CC3O (configuration not stated)
inactive: dose: 1.56 mg/kg/injection, schedule: Q01DX009 (ip), vehicle: other 108 % of control | dose: 3.13 mg/kg/injection, schedule: Q01DX009 (ip), vehicle: other 106 % of control | dose: 6.25 mg/kg/injection, schedule: Q01DX009 (ip), vehicle: other 105 % of control | dose: 12.5 mg/kg/injection, schedule: Q01DX009 (ip), vehicle: other 97 % of control | dose: 25.0 mg/kg/injection, schedule: Q01DX009 (ip), vehicle: other 91 % of control

Cc1ccccc1-n1c(C)nc2[nH]ncc2c1=O
inactive: [14] 105 % of control | [15] 98 % of control | [16] 96 % of control

Nc1nc(N)nc(-c2ccccc2Cl)n1
inactive: [1] 117 % of control | dose: 100.0 mg/kg/injection, schedule: Q01DX009 (ip), vehicle: saline 93 % of control | dose: 200.0 mg/kg/injection, schedule: Q01DX009 (ip), vehicle: saline 117 % of control

CC(=O)C(C(=O)Nc1cccc2ccccc12)C(C)=NCC(C)N=C(C)C(C(C)=O)C(=O)Nc1cccc2ccccc12.[Cu] (configuration not stated)
inactive: dose: 12.5 mg/kg/injection, schedule: Q01DX005 (ip), vehicle: saline + Tween-80 + alcohol 110 % of control | dose: 25.0 mg/kg/injection, schedule: Q01DX005 (ip), vehicle: saline + Tween-80 + alcohol 96 % of control | dose: 50.0 mg/kg/injection, schedule: Q01DX005 (ip), vehicle: saline + Tween-80 + alcohol 105 % of control

CC(C)C(NC(=O)C(CCCN=C(N)N)NC(=O)NC(Cc1ccccc1)C(=O)O)C(=O)NC(C=O)Cc1ccccc1 (stereo not drawn) ({Phe-CO}-Arg-Val-Phe-aldehyde; configuration not given here)
inactive: dose: 8.25 mg/kg/injection, schedule: Q01DX005 (ip), vehicle: Klucel (hydroxypropylcellulose) (HPC) 95 % of control | dose: 8.75 mg/kg/injection, schedule: Q01DX005 (ip), vehicle: Klucel (hydroxypropylcellulose) (HPC) 99 % of control | dose: 16.5 mg/kg/injection, schedule: Q01DX005 (ip), vehicle: Klucel (hydroxypropylcellulose) (HPC) 92 % of control | dose: 17.5 mg/kg/injection, schedule: Q01DX005 (ip), vehicle: Klucel (hydroxypropylcellulose) (HPC) 99 % of control | dose: 33.0 mg/kg/injection, schedule: Q01DX005 (ip), vehicle: Klucel (hydroxypropylcellulose) (HPC) 93 % of control | dose: 35.0 mg/kg/injection, schedule: Q01DX005 (ip), vehicle: Klucel (hydroxypropylcellulose) (HPC) 93 % of control | dose: 66.0 mg/kg/injection, schedule: Q01DX005 (ip), vehicle: Klucel (hydroxypropylcellulose) (HPC) 92 % of control | dose: 70.0 mg/kg/injection, schedule: Q01DX005 (ip), vehicle: Klucel (hydroxypropylcellulose) (HPC) 87 % of control

O=C(O)c1ccccc1NC(c1ccccc1)c1ccc2cccnc2c1O (configuration not stated)
inactive: dose: 100.0 mg/kg/injection, schedule: Q04DX003 (ip), vehicle: Klucel (hydroxypropylcellulose) (HPC) 114 % of control and 115 % of control | dose: 200.0 mg/kg/injection, schedule: Q04DX003 (ip), vehicle: Klucel (hydroxypropylcellulose) (HPC) 113 % of control and 119 % of control

Clc1ccc(C(CCc2ccc(Br)cc2)Cn2ccnc2)c(Cl)c1 (configuration not stated)
inactive: dose: 25.0 mg/kg/injection, schedule: Q01DX009 (ip), vehicle: saline with Tween-80 88 % of control | [12] 87 % of control

c1ccc(-c2nc(N3CCN(c4ccco4)CC3)c3c4c(sc3n2)CCC4)cc1
inactive: dose: 12.5 mg/kg/injection, schedule: Q01DX005 (ip), vehicle: Klucel (hydroxypropylcellulose) (HPC) 97 % of control | dose: 25.0 mg/kg/injection, schedule: Q01DX005 (ip), vehicle: Klucel (hydroxypropylcellulose) (HPC) 90 % of control | [14] 90 % of control and 91 % of control

CCc1nc(N)nc(N)c1-c1ccc(NCCN)c([N+](=O)[O-])c1
inactive: [6] 113 % of control | [7] 116 % of control | [8] 116 % of control

CC(=O)OCCSSCCOC(C)=O
inactive: [12] 107 % of control | [13] 113 % of control

Cc1ccc(N)c(S)c1
inactive: dose: 12.5 mg/kg/injection, schedule: Q01DX009 (ip), vehicle: Klucel (hydroxypropylcellulose) (HPC) 98 % of control | [2] 120 % of control | [3] 117 % of control

CCN(CC)c1cc(C)c(Cc2c(OC)ccc3ccccc23)cc1C
inactive: [14] 92 % of control | [15] 92 % of control | [16] 99 % of control
